Reference: US20220226339A1, “INHIBITATION OF ACID LIPASE FOR CANCER THERAPY” (Heinrich-Heine-Universität Düsseldorf, priority 2019, published 2022)

Assays:
MDA-MB-231 cancer cells [1] = assay: Cell proliferation of MDA-MB-231 cancer cells (CellTiterGlo); format: cell-based, human; settings: MDA-MB-231, 3 days, 15% FCS RPMI, Lalistat concentrations descending from 50 μM, non-cell-toxic range
Experimental: Cell proliferation was ascertained using Cell-TiterGlo®.
MDA-MB-231 cancer cells were incubated with Lalistat 2 (selective LAL inhibitor) or the formulation control (mock).
MDA-MB-231 cancer cells were incubated with Lalistat 2 (selective LAL inhibitor) or the formulation control (mock). For the formulation control, […] alone was used with the same concentration of DMSO as for Lalistat 2. 24 hours after seeding, the cancer cells were incubated for 3 days in 15% FCS-containing RPMI medium having concentrations of Lalistat descending from 50 μM or the corresponding DMSO concentration as control. Subsequently, CellTiterGlo® (Promega) was used to quantify the number of vital cancer cells.

MDA-MB-231 cancer cells [2] = assay: Relative expression of tumor stem cell markers and vimentin by quantitative PCR; format: cell-based, human; settings: MDA-MB-231, 6 days, 50 μM Lalistat vs 0.05% DMSO
Experimental: 24 hours after seeding, MDA-MB-231 cancer cells were incubated for 6 days in 15% FCS-containing RPMI medium containing 50 μM Lalistat or formulation control (0.05% DMSO). Subsequently, the relative expression of the (A-C) tumor stem cell markers ALDH1, CD44 and the ratio CD44/CD24 and of the (D) mesenchymal marker vimentin was analyzed by means of quantitative PCR. The values were normalized to the housekeepers GAPDH or HRPT1. The target was amplified in a singleplex assay using “SYBR Green”.
The results of two independent experiments with three biological replicates in each case are depicted. Significance difference compared to formulation control: ALDH: 0.0026 (GAPDH), 0.0004 (HRPT1); CD44: […] (GAPDH/HRPT1); CD44/CD24: <0.01

[3] = tested on: PD-L1 expression on cancer cells; assay: PD-L1 expression on cancer cells after Lalistat treatment; format: cell-based

O=C(Oc1nsnc1N1CCCCC1)N1CCCCC1 [Lalistat 2, 4-(piperidin-1-yl)-1,2,5-thiadiazol-3-yl piperidine-1-carboxylate]
cell proliferation compared to formulation control (MDA-MB-231 cancer cells [1]): antiproliferative effect
cell proliferation compared to formulation control (MDA-MB-231 cancer cells [1]; listed as Lalistat): distinct inhibition of cell proliferation
expression of mesenchymal marker vimentin (MDA-MB-231 cancer cells [2]; qPCR): reduction in the expression
expression of (tumor) stem cell markers (ALDH1, CD44, ratio CD44/CD24) (MDA-MB-231 cancer cells [2]; qPCR normalized to GAPDH or HRPT1): reduction in the expression
PD-L1 expression on cancer cells [3]: reduced PD-L1 expression
